The source of these data is patent publication US20160368868A1, “N-(1-CYANO-2-HYDROXY-1-METHYL-ETHYL)-4-(TRIFLUOROMETHYLSULFANYL)BENZAMIDE DERIVATIVES FOR USE AS NEMATOCIDAL DRUGS” (UNIVERSITÄT ZÜRICH Prorektorat MNW, priority 2013, published 2016).

The test system of one assay is Dirofilaria immitis. In words: Activity in vitro against Dirofilaria immitis microfilariae (motility). To be noted: at up to 10 μg/mL; efficacy in percent reduced motility of microfilariae; 48 hours at 26° C. In kind it is cell-based.
The test system of a further assay is MRC-5. In words: Resazurin fluorometric cell viability assay, MRC-5. Conditions: Homo sapiens, MRC5, 48 h, read-out: IC50 in MRC-5. (The colour change of resazurin is a common sign of viable cells or microbes.)
A further assay deals with HeLa. In words: Resazurin fluorometric cell viability assay, HeLa. To be noted: Homo sapiens, 48 h, read-out: IC50 in HeLa.
In the next assay the test system is H. contortus. As to the kind of experiment: Larval development assay (LDA). To be noted: for LD50 against H. Contortus: larval development assay, L3 counted after 7 days; for inhibition of the development of H. contortus larvae: at concentrations between 100 μM and 25 μM.

As usually defined, the IC50 is the concentration that gives 50% inhibition.

Each structure is given as a SMILES string. Where only a bound is given, the exact number is not on record here.

Protocol for HeLa: (§1) The toxicity towards a human cervical cancer HeLa and a non-cancerous (MRC-5) cell line was determined using the fluorometric cell viability assay (Resazurin) (Ahmed et al., J. Immunol. Methods 1994, 170, 211.), results of which are shown in Table 1.
(§2) Human cervical carcinoma cells (HeLa) cells were cultured in DMEM (Gibco) supplemented with 5% fetal calf serum (FCS, Gibco), 100 U/ml penicillin, 100 μg/ml streptomycin at 37° C. and 5% CO2. The normal human fetal lung fibroblast MRC-5 cell line was maintained in F-10 medium (Gibco) supplemented with 10% FCS (Gibco), penicillin (100 U/ml), and streptomycin (100 μg/ml). Cytotoxicity studies were performed on two different cell lines, namely HeLa, and MRC-5, by a fluorometric cell viability assay using Resazurin (Promocell GmbH). Briefly, one day before treatment, cells were seeded in triplicates in 96-well plates at a density of 4×10^3 cells/well for HeLa and 7×10^3 for MRC-5 in 1041.1 growth medium. Upon treating cells with increasing concentrations of Fc-PZQ derivatives for 48h, the medium was removed, and 100 μl complete medium containing Resazurin (0.2 mg/ml final concentration) were added. After 4h of incubation at 37° C., fluorescence of the highly red fluorescent product Resorufin was quantified at 590 nm emission with 540 nm excitation wavelength in a SpectraMax M5 microplate Reader.
Protocol for MRC-5: as §1, §2

Consider `CC(C#N)(COC(=O)c1ccccc1)NC(=O)c1ccc(SC(F)(F)F)cc1` (centres unmarked), for which, in the assay with Dirofilaria immitis, the “Activity against Dirofilaria immitis” value is given as “EC6 at up to 10 μg/mL”.

Take `C#CC(=O)OCC(C)(C#N)NC(=O)c1ccc(SC(F)(F)F)cc1` (centres unmarked): the “Activity against Dirofilaria immitis” value in the assay on Dirofilaria immitis is “EC15 at 0-10 μg/mL”.

With `CC(C#N)(CO)NC(=O)c1ccc([S+]([O-])C(F)(F)F)cc1` (centres unmarked), in the assay with Dirofilaria immitis, the “Activity against Dirofilaria immitis” value is “EC5 at up to 10 μg/mL”.

As for `CC(C#N)(CO)NC(=O)c1ccc(S(=O)(=O)C(F)(F)F)cc1` (centres unmarked), the “Activity against Dirofilaria immitis” value in the assay on Dirofilaria immitis is “EC15 at up to 10 μg/mL”.

For the compound `CC(C#N)(CO)NC(=O)c1ccc(C(F)(F)F)cc1` (centres unmarked), in the assay on Dirofilaria immitis, the “Activity against Dirofilaria immitis” value is listed as “EC25 at up to 10 μg/mL”.

Regarding `CSc1ccc(C(=O)NC(C)(C#N)CO)cc1` (centres unmarked), the “Activity against Dirofilaria immitis” value in the assay on Dirofilaria immitis is given as “EC15 at up to 10 μg/mL”.

Take `CC(C#N)(CO)NC(=O)c1ccc(F)cc1` (centres unmarked): in the assay with Dirofilaria immitis, the “Activity against Dirofilaria immitis” value is “EC20 at up to 10 μg/mL”.

`CC(C#N)(CO)NC(=O)c1ccc(I)cc1` (centres unmarked): the “Activity against Dirofilaria immitis” value in the assay on Dirofilaria immitis is “EC15 at up to 10 μg/mL”.

Consider `C[C@](C#N)(COc1cc(C#N)ccc1C(F)(F)F)NC(=O)c1ccc(SC(F)(F)F)cc1` [Zolvix, Monepantel, reference compound], for which the IC50 with MRC-5 was determined as 63.9 µM; with HeLa, 34.1 µM. For the same compound, the “LD50 against H. Contortus” value with H. contortus is under 41 nM.

For the compound `CC(=O)OCC(C)(C#N)NC(=O)c1ccc(SC(F)(F)F)cc1` (centres unmarked) [ahpOH1, 2-Cyano-2-(4-((trifluoromethyl)thio)benzamido)propyl acetate], the IC50 in the assay with MRC-5 was over 100 µM. For the same compound, in the assay with HeLa, the IC50 was over 100 µM. For the same compound, in the assay on H. contortus, the “inhibition of the development of H. contortus larvae” value is “severely and reproducibly inhibited”; the “LD50 against H. Contortus” value was found to be 550 nM.

Turning to `CC(C#N)(CO)NC(=O)c1ccc(SC(F)(F)F)cc1` (centres unmarked) [ahpOH, N-(2-cyano-1-hydroxypropan-2-yl)-4-((trifluoromethyl)thio)benzamide], the IC50 with MRC-5 and in the assay on HeLa was over 100 µM throughout. In addition, the “inhibition of the development of H. contortus larvae” value with H. contortus is “severely and reproducibly inhibited”. Besides, the “LD50 against H. Contortus” value in the assay on H. contortus was determined as 173 nM.

On to `CC(C#N)(CO)NC(=O)c1ccc(SC(F)(F)F)cc1` (centres unmarked) [drawing 36], for which, in the assay on Dirofilaria immitis, the “Activity against Dirofilaria immitis” value is on record as “EC20 at up to 10 μg/mL”.
